Test results reported in patent US20250368687A1, “SHORT SYNTHETIC PEPTIDES AND USES THEREOF IN THE TREATMENT OF ENTEROVIRUS INFECTION” (CITY UNIVERSITY OF HONG KONG, priority 2024, published 2025).

Legend:
EV-A71 [1] = assay: Viral RNA quantification by RT-qPCR; type: cell-based; details: for effect on viral RNA level: 8 μM; for decrease of extracellular viral RNA level: 25 μM, EV-A71 MOI 1 for 12 hours; for decrease of extracellular viral RNA level / decrease of viral RNA / viral RNA level (in words): RD cells; for decrease of viral RNA: 50 μM; for decrease of viral RNA / viral RNA level (in words): intracellular viral RNA; for viral RNA level (in words): indicated concentrations
Experimental: FIGS. 7A-7D Ser78 phosphorylation-deficient Hsp27 inhibits EV-A71 replication and propagation (FIG. 7A) HEK 293T cells were transfected with 500 ng Hsp27 (WT, 3A, S15A, S78A, S82A) plasmids for 48 hours, and then infected with EV-A71 at an MOI of 10 for 9h. Intracellular viral RNA were extracted and quantified by qPCR. (FIG. 7B) HEK 293T cells were transfected with 500 ng Hsp27 (WT, 3D, S15D, S78D, S82D) plasmids for 48 hours, and then infected with EV-A71 at an MOI of 10 for 9h. Intracellular viral RNA were extracted and quantified by qPCR. (FIG. 7C) HEK 293T cells were transfected with 500 ng Hsp27 (WT, S78A, S78D) plasmids for 48 hours, and treated with 8 μM SB203580 2 hours before infection with EV-A71. (FIG. 7D) HEK 293T cells were transfected with 500 ng Hsp27 (WT, 3A, S15A, S78A, S82A) plasmids for 48 hours, and then infected with EV-A71 at an MOI of 10 for 12h. Viral titration was calculated by TCID50. Statistical analyses were carried out using Student's t-test. *: p<0.05, **: p<0.01, ***: p<0.001. Data are expressed as mean ±SD.
(§1) FIGS. 10A-10K. Peptide S78 inhibited EV-A71 replication and propagation. (FIG. 10A) RD cells were pre-treated with peptides S78 or for 2 hours and infected with EV-A71 at the MOI of 10 for 6 hours. Cell lysates were collected for western blot assay. Hsp27 phosphorylation on Ser 15, 78, 82 were detected by specific antibodies. β-Actin were detected as internal control. (FIG. 10B) Densitometric analysis of FIG. 9A. (FIG. 10C) HEK 293T cells were pre-treated with peptides S78 or S78A at the concentration of 25 μM for 2 hours and then co-transfected with Hsp27-WT plasmid (800 ng), pIRES reporter plasmid (200 ng) and 2A^pro-expressing plasmid or 2AC110A-expressing plasmid (200 ng) for 24 h, then the luciferase activity was measured. (FIG. 10D-10E) RD cells were treated with peptides S78 or S78A and then infected with EV-A71. EV-A71 VP1 were detected. (FIG. 10F) RD cells were treated with peptides and then infected with EV-A71 at the MOI of 1 for 12 hours. The EV-A71-induced CPE was captured. (FIG. 10G-10H) Intracellular viral RNA was extracted and quantified by qPCR. (FIG. 10I) Densitometric analysis FIG. 9D-E. (FIG. 10J) RD cells were treated with peptides S78 or and then infected with EV-A71 at the MOI of 1 for 12 hours. Extracellular viral RNA was extracted and quantified by qPCR. (FIG. 10K) Viral titration was calculated by TCID50. The Statistical analyses were carried out using Student's t-test. *: p<0.05, **: p<0.01, ***: p<0.001. Data are expressed as mean ±SD.
FIGS. 11A-11G Inhibition of EV-A71 Protein Translation and Viral Reproduction by peptide S82A. (FIG. 11A) HEK 293T cells were pre-treated with peptides NC, S78, S78A, S82A, or S78-3A at the concentration of 25 μM for 2 hours and then co-transfected with Hsp27-WT plasmid (800 ng), pIRES reporter plasmid (200 ng) and 2A^pro-expressing plasmid for 24 h, then the luciferase activity was measured. (FIG. 11B) RD cells were pre-treated with peptides NC at indicated concentrations for 2 hours and infected with EV-A71 at the MOI of 1 for 9 hours. Intracellular viral RNA was extracted and quantified by qPCR. (FIG. 11C-11E) RD cells were treated with peptides NC, S82A, or S78-3A at indicated concentrations for 2 hours and then infected with EV-A71 at the MOI of 1 for 9 hours. Cell lysates were collected for western blot assay. EV-A71 VP1 were detected. β-Actin was detected as an internal control. (FIG. 11F) Densitometric analysis of the EV-A71 VP1 level in FIG. S7C-E was quantified and normalized with β-Actin using ImageJ. (FIG. 11G) RD cells were treated with peptides S78, S78A, S82A, or S78-3A at the concentration of 25 μM for 2 hours and then infected with EV-A71 at the MOI of 0.1 for 24 hours. Viral titration was calculated. The Statistical analyses were carried out using Student's t-test. *: p<0.05, **: p<0.01, ***: p<0.001. Data are expressed as mean ±SD. […]

EV-A71 [2] = assay: Virus titration (TCID50); type: cell-based; details: TCID50, RD cells (FIG. 10K)
Experimental: as §1, with “The Statistical analyses were carried out using Student's t-test. *: p<0.05, **: p<0.01, ***: p<0.001.” left out
FIGS. 11A-11G Inhibition of EV-A71 Protein Translation and Viral Reproduction by peptide S82A. (FIG. 11A) HEK 293T cells were pre-treated with peptides NC, S78, S78A, S82A, or S78-3A at the concentration of 25 μM for 2 hours and then co-transfected with Hsp27-WT plasmid (800 ng), pIRES reporter plasmid (200 ng) and 2A^pro-expressing plasmid for 24 h, then the luciferase activity was measured. […] Intracellular viral RNA was extracted and quantified by qPCR. […] EV-A71 VP1 were detected. β-Actin was detected as an internal control. (FIG. 11F) Densitometric analysis of the EV-A71 VP1 level in FIG. S7C-E was quantified and normalized with β-Actin using ImageJ. […] Viral titration was calculated. […] Data are expressed as mean ±SD. […]

| Molecule | decrease of viral RNA level (EV-A71 [1]; 8 μM 2 hours before infection, Hsp27 over-expressing HEK 293T cells) | effect on viral RNA level (EV-A71 [1]; Hsp27 S78A-expressing HEK 293T cells) | effect on viral RNA level (EV-A71 [1]; Hsp27 S78D-expressing HEK 293T cells) | decrease of viral titer (EV-A71 [2]) | decrease of extracellular viral RNA level (EV-A71 [1]) | decrease of viral RNA (EV-A71 [1]) | viral RNA level (in words) (EV-A71 [1]) |
| --- | --- | --- | --- | --- | --- | --- | --- |
| C[S+]([O-])c1ccc(-c2nc(-c3ccncc3)c(-c3ccc(F)cc3)[nH]2)cc1 (centres unmarked) [SB203580, reference compound] | 50% | no obvious effects | no obvious effects |  |  |  |  |
| Ac-RKKRRQRRRAYSRALARQLSS-NH2 [S78A] |  |  |  | 50 folds | 30 folds | 46% |  |
| Ac-RKKRRQRRRAYSRALSRQLSS-NH2 [S78] |  |  |  | 450 folds | 800 folds | 82% | dramatically reduced |
| Ac-RKKRRQRRRYSREANQPKPSPKRESGEE-NH2 [NC, reference compound] |  |  |  |  |  |  | no effect |
